{
  "source": "patent US9839606B2",
  "about": "“Formulation for treatment of hairs” (OSMA Cosmetics & Laboratories AG, priority 2013, dated 2017)",
  "origin": "cited, not measured here",
  "key": {"[1]": {"system": "human dermal papilla cells (DPCs)"}},
  "data": [
    {"substance": "epigallocatechin-3-gallate [EGCG]", "values": [
      {"measurement": "hair growth in hair follicles ex vivo culture", "setting": "hair follicles", "result": "promoted hair growth"},
      {"measurement": "proliferation of cultured DPCs", "setting": "[1]", "result": "promoted"}
    ]}
  ]
}
